How the values were obtained:
[1] = biological target: 264 peptide/HLA-A2 complexes on the surface of the human B lymphoid cell line T2 (Homo sapiens, UniProt P04439+P04637, D140Y/D185E/D98H/E176V/E277Q/G131W/G231S/I119V/I121R/I166T/I218V/L300P/L318F/N151K/N90K/P208A/P217A/Q86G/Q94H/R138H/R169H/T345S); assay: Flow cytometry / immunofluorescence staining of peptide-pulsed T2 cells with fusion protein (264 peptide); type: binding; conditions: 0.5 μg (10 μg/ml) fusion protein; T2 cells pulsed with 264 peptide
Experimental: (§1) Flow cytometry and immunofluoresence staining were used to show direct binding of the fusion protein via its TCR to peptide/HLA-A2 complexes on the surface of the human B lymphoid cell line T2 (FIG. 4) • A) Staining of 149 or 264 peptide pulsed T2 cells with 0.5 μg (10 μg/ml) of 264 scTCR-IL-2 fusion protein. […] To evaluate A2 loading of each peptide, the cells were stained with the HLA-A2 specific mAb BB7.2 […] after overnight incubation of the cells with peptide.

[2] = biological target: T1, 149 peptide/HLA-A2 complexes on the surface of the human B lymphoid cell line T2 (Homo sapiens, UniProt P04439+P04637, D140Y/D185E/D98H/E176V/E277Q/G131W/G231S/I119V/I121R/I166T/I218V/L300P/L318F/N151K/N90K/P208A/P217A/Q86G/Q94H/R138H/R169H/T345S); assay: Flow cytometry / immunofluorescence staining of peptide-pulsed T2 cells with fusion protein (149 peptide); type: binding; conditions: 0.5 μg (10 μg/ml) fusion protein; T2 cells pulsed with 149 peptide
T1 construct: on the surface of the human B lymphoid cell line T2; endogenous in cells; host or cells: T2 cells pulsed with 149 peptide
Experimental: as §1

[3] = test system: CTLL-2 cells and 264 peptide-loaded T2 cells; assay: Cell-cell conjugation assay, CTLL-2 cells with 264 peptide-loaded T2 cells, flow cytometer; type: cell-based, murine CTLL-2, human T2
Experimental: (§2) In this experiment, T2 cells pulsed with either the 149 or 264 peptide. CTLL-2 cells were hydrodiethidium (HE) labeled and incubated for 20 minutes at RT with an equal number of calcein-AM labeled T2 cells pulsed with either 50 μg of 149 or 264 peptide. […] In contrast, conjugate formation was not observed with the mixture that included the 149 peptide pulsed T2 cells (B; 0.88%). Cell samples were washed one time before analysis on the flow cytometer.

[4] = test system: CTLL-2 cells and 149 peptide pulsed T2 cells; assay: Cell-cell conjugation assay, CTLL-2 cells with 149 peptide pulsed T2 cells, flow cytometer; type: cell-based, murine CTLL-2, human T2; conditions: fusion protein; HE-labeled CTLL-2 and calcein-AM labeled T2 pulsed with 50 μg 149 peptide; 20 minutes at RT
Experimental: as §2

[5] = biological target: T2, HLA-A2 (Homo sapiens, UniProt P04439, D140Y/D185E/D98H/E176V/E277Q/G131W/G231S/I119V/I121R/I166T/I218V/L300P/L318F/N151K/N90K/P208A/P217A/Q86G/Q94H/R138H/R169H/T345S); assay: HLA-A2 loading of peptide on T2 cells, staining with HLA-A2 specific mAb BB7.2; type: cell-based; conditions: T2 cells pulsed with 50 μg peptide overnight; BB7.2 staining
T2 construct: HLA-A2 surface expression on T2 cells; endogenous in cells; host or cells: T2 cells
Experimental: as §1

Row | binding of fusion protein to T2 cells displaying the 264 peptide [1] | binding of fusion protein to T2 cells displaying the 149 peptide [2] | HLA-A2 binding of peptide (HLA-A2 surface expression on pulsed T2 cells) [5] | Substance | conjugation between cells (conjugate formation) ([3]; 1 Ag of fusion protein, HE-labeled CTLL-2 and calcein-AM labeled T2 pulsed with 50 μg 264 peptide, 20 minutes at RT) [%] | conjugation between a T cell and an antigen presenting cell pulsed with the correct peptide ([3]; restatement of example 11) | conjugation between cells (conjugate formation) [4] [%]
1 | binds specifically | not | – | 264 scTCR-IL-2 fusion protein: soluble 264 single-chain TCR covalently linked to human IL-2 with EE peptide tag | 3.25 | able to mediate conjugation | 0.88
2 | – | – | efficient HLA-A2 binding | LLGRNSFEV [264 peptide] | – | – | –

From patent US20180086810A1, “T CELL RECEPTOR FUSIONS AND CONJUGATES AND METHODS OF USE THEREOF” (ALTOR BIOSCIENCE CORPORATION, priority 2000, published 2018)
